Consider 15 compounds from PubChem BioAssay (NCI).

Common to all, as to assay: inhibition of tumour cell growth, NCI panel, 48 h
For assay [1], the system named is HOP-92 NSCLC.
The test system of assay [2] is SNB-75 CNS.
In assay [3] the test system is DU-145 prostate.
The subject of assay [4] is HOP-62 NSCLC.
For assay [5], the system named is KM12 colon.
For assay [6], the system named is HCT-15 colon.
For assay [7], the system named is NCI-H522 lung.
For assay [8], the system named is CAKI-1 renal.
Assay [9] concerns HCT-116 colon.
Assay [10] deals with A498 renal.

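How tested: cells in 96-well plates exposed to compound for 48 hours at five concentrations. At the TGI there is no net growth.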 Some results are limits rather than exact numbers.

With `N=c1oc2ccc3ccccc3c2cc1-c1nc2ccccc2c(=O)[nH]1`, the TGI is 41.9 µM in [1]; 19.6 µM in assay [2]; above 100 µM in [3]; 45.4 µM in [4]; 43 µM in assay [5]; above 100 µM in assay [6]. Besides, the results for the TGI in assay [7], in assay [8] and in [9] were 28.8 µM, above 100 µM and above 100 µM, respectively.
Turning to `COc1cc(C[C@@]2(C)[C@@H]3CCC[C@H](CO)[C@@]3(C)CC[C@@H]2C)c(Cl)c(OC)c1`, the TGI in assay [1] was determined as 30.5 µM; in assay [2] it was 31.9 µM; in assay [3], 30 µM; in assay [4] it was 31.6 µM; in [5] it was 37.8 µM; in assay [6] it was 34.1 µM. Further, the TGI in assay [7] amounted to 28.9 µM; in assay [8] it was 31.1 µM; in assay [9], 24.7 µM.
In the case of `Cc1[nH]n(-c2nc(-c3ccccc3)cc(=O)[nH]2)c(=O)c1CCO`, the TGI in assay [1], in assay [3], in [4], in assay [5], in [6] and in [8] was above 100 µM in each case. This compound also showed a TGI in assay [9] above 100 µM.
As for `O=[N+]([O-])c1ccc2c(c1)nc1n2C(c2c(F)cccc2F)SC1` (configuration not stated), the TGI in [1], in assay [2], in [3], in assay [4], in assay [5] and in [6] was above 100 µM in each case. For the same compound, the TGI in assay [7], in [8] and in assay [9] was above 100 µM each time.
Regarding `CN1C/C(=C\c2cccs2)C2=NN(c3ccccc3)C(c3cccs3)C2C1` (configuration not stated), the TGI is above 90.2 µM in [10]; above 58.2 µM in assay [3]; above 100 µM in assay [4]; above 100 µM in [5]; above 100 µM in assay [6]; above 100 µM in assay [7]. Besides, the TGI in [8] is above 100 µM; in [9], above 35.7 µM.
Consider `Nc1cc(OCC2CCCCC2)nc(N)n1`, for which the TGI in assay [1], in assay [2], in [3], in assay [4], in [5] and in assay [6] was above 100 µM throughout. Also, the TGI in assay [7], in [8] and in assay [9] was above 100 µM throughout.
Consider `Nc1cc(CO)cc(Nc2c3ccccc3nc3ccccc23)c1`, for which the TGI in assay [2] was 34.5 µM; in [10] it was 46.6 µM; in assay [3], 73.1 µM; in [4] it was 28.8 µM; in assay [5] it was 29.8 µM; in assay [6] it was 34.4 µM. Also, the TGI in [7] amounted to 18.9 µM; in [8], 31.7 µM; in assay [9], 28.5 µM.
In the case of `COc1ccc(-c2c(C#N)c(N)[nH]c(=S)c2C#N)cc1`, the TGI in assay [1], in assay [10], in assay [3], in assay [4], in [5] and in assay [6] was above 100 µM each time. The TGI in [7] was 63 µM; in assay [8] it was above 100 µM; in [9], 93.8 µM.
Regarding `CCC(C)C(Nc1c2ccccc2nc2c(C(=O)NCCN(C)C)cccc12)C(=O)O` (configuration not stated), the TGI in [1] was 61.1 µM; in assay [2] it was 61.8 µM; in assay [10], 42.4 µM; in assay [3] it was above 100 µM; in [4] it was above 100 µM; in assay [5], above 100 µM. The TGI in [6] was above 100 µM; in assay [7], 56.8 µM; in [9] it was above 100 µM.
As for `NCCCn1c(Cl)nc2ccccc21`, the TGI in assay [2], in assay [10], in assay [3], in assay [4], in assay [5] and in [6] was above 100 µM in each case. Also, the TGI in assay [7], in assay [8] and in assay [9] was above 100 µM throughout.
Consider `CCCC(=O)OCC1OC(n2cc(F)c(=O)[nH]c2=O)CC1OC(=O)CCC` (configuration not stated), for which the TGI is above 10 µM in assay [1]; above 9.23 µM in assay [10]; above 2.62 µM in assay [3]; above 10 µM in [4]; above 10 µM in assay [5]; above 10 µM in [6]. Moreover, the TGI in [7] was above 10 µM; in assay [8], above 7.85 µM; in assay [9], above 10 µM.
As to `COc1cc(/C=C/c2ccc(OC)c(OC)c2)oc(=O)c1`, the TGI is above 250 µM in assay [1]; above 227 µM in [2]; above 250 µM in assay [10]; above 250 µM in assay [4]; above 250 µM in [5]; above 250 µM in assay [6]. For the same compound, the TGI in assay [7] is above 250 µM; in assay [8], above 114 µM; in assay [9], above 250 µM.
As for `COC(=O)c1ccc(OCCn2nnc(C(=O)NN)c2C(=O)NN)cc1`, the TGI in assay [1], in assay [3], in [4], in [5], in assay [6] and in [8] was above 100 µM throughout. In [9], this compound yielded a TGI above 100 µM.
With `CCC1(CC)C(=O)NC(=O)NC1=S`, the TGI in assay [1], in assay [2], in assay [10], in assay [4], in [6] and in [7] was above 100 µM throughout. The TGI in assay [9] was above 100 µM.
As to `CC(C#N)(NO)C(C)(C#N)NO` (configuration not stated), the TGI in [2], in assay [10], in assay [3], in [5], in assay [6] and in assay [7] was above 100 µM throughout. Further, the TGI in [8] and in assay [9] was above 100 µM throughout.
